Assay [1] has as its system EP13 multi protease inhibitor resistant virus. The experiment in a line: Anti-viral activity against resistant virus EP13 in MT4 cells. The class given is cell-based, HIV-1. The gist of the method:
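MT4 cells infected for 1 h at 37 °C, MOI 100×TCID50, then diluted 6-fold onto pre-diluted compound and cultured 5 days (5% CO2). Viable-cell DNA content estimated by propidium iodide. EP13 carries protease mutations M46I, L63P, A71V, V82F/L, I84V, no RT mutations.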

Assay [2] concerns D545701-14 multi protease inhibitor resistant virus. The experiment in a line: Anti-viral activity against resistant virus D545701-14 in MT4 cells. The class given is cell-based, HIV-1.
Assay [3] has as its system HIV-1 (strain IIIB). The assay can be described thus: Antiviral activity assay in MT4 cells (propidium iodide based). It counts as cell-based. The gist of the method:
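Compound serial dilutions in RPMI/FCS received MT4 cells pre-infected 1 hr at 37°C with HIV-1 IIIB at 100×TCID50. After 5 days' culture and Nonidet-40 lysis, well DNA content was measured by propidium iodide dye; mock-infected cells served as control.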

[4] abbreviates: Human immunodeficiency virus 1, MT4, read-out: EP13 mutant IC50, EP13 multi protease inhibitor resistant virus, MT4 cells.
Setting [5] is: Human immunodeficiency virus 1, IIIB, wild type HIV-1 virus, MT4 cells, read-out: Wildtype virus - IC50.
[6] abbreviates: Human immunodeficiency virus 1, MT4, read-out: D545701-14 mutant - IC50, D545701-14 multi protease inhibitor resistant virus, MT4 cells.
Setting [7] is: EP13 multi protease inhibitor resistant virus, MT4 cells, read-out: EP13 mutant IC50.
Setting [8] is: D545701-14 multi protease inhibitor resistant virus, MT4 cells, read-out: D545701-14 mutant - IC50.
Setting [9] is: wild type HIV-1 virus, MT4 cells, read-out: Wildtype virus - IC50.
The mark [10] stands for this setting: Human immunodeficiency virus 1, MT4, 120 h, MT-4 cells, HIV-1 strain IIIB, 5 days, read-out: IC50 (Antiviral Activity of Compounds of the Invention).

Read-outs that look alike come from different tables or passages of the source.

The text below walks through data of patent US8455497B2, “Inhibitors of aspartyl protease” (Vertex Pharmaceuticals Incorporated, priority 1999, dated 2013).

On to `CC(C)CN(C[C@@H](O)[C@H](Cc1ccc(OCCCc2ccccc2)cc1)NC(=O)O[C@H]1CO[C@H]2OCC[C@H]21)S(=O)(=O)c1ccc2c(c1)OCO2` [Compound 203, (3R,3aS,6aR)hexahydrofuro[2,3-b]furan-3-yl (1S,2R)-3-[(1,3-benzodioxol-5-ylsulfonyl)(isobutyl)amino]-2-hydroxy-1-[4-([3-phenylpropyl]oxy)benzyl]propylcarbamate], for which the IC50 – broadly, the concentration that inhibits the measured activity by half – is 1 to 10 nM in assay [1] (setting [4]); 10 to 100 nM in assay [2] (read-out: D545701-14 mutant - IC50, D545701-14 multi protease inhibitor resistant virus, MT4 cells); less than 1 nM in assay [3] (setting [5]).

As for `CC(C)CN(C[C@@H](O)[C@H](Cc1ccc(OCc2cccc([N+](=O)[O-])c2)cc1)NC(=O)O[C@H]1CO[C@H]2OCC[C@H]21)S(=O)(=O)c1ccc2c(c1)OCO2` [Compound 384, (3R,3aS,6aR)-hexahydrofuro[2,3-b]furan-3-yl (1S,2R)-3-[(1,3-benzodioxol-5-ylsulfonyl)(isobutyl)amino]-2-hydroxy-1-{4-[(3-nitrobenzyl)oxy]benzyl}propylcarbamate], the IC50 in assay [1] (setting [4]), in assay [2] (setting [6]) and in assay [3] (setting [5]) was 1 to 10 nM in each case.

Turning to `CC(C)CN(C[C@@H](O)[C@H](Cc1ccc(OCc2cccc(C#N)c2)cc1)NC(=O)O[C@H]1CO[C@H]2OCC[C@H]21)S(=O)(=O)c1ccc2c(c1)OCO2` [Compound 367, (3R,3aS,6aR)-Hexahydrofuro[2,3-b]furan-3-yl-N (1S,2R)-1-[4-(3-cyanobenzyloxy)-benzyl]-3-i-butyl-[(3,4-methylenedioxyphenyl)sulfonyl]-amino-2-hydroxypropyl-carbamate], the IC50 in assay [1] (setting [7]) is less than 1 nM; in assay [2] (setting [8]), 1 to 10 nM; in assay [3] (setting [9]), less than 1 nM.

As for `CC(C)CN(C[C@@H](O)[C@H](Cc1ccc(OCCCCN)cc1)NC(=O)O[C@H]1CO[C@H]2OCC[C@H]21)S(=O)(=O)c1cccc(N)c1` [Compound 292], the IC50 in assay [1] (setting [4]), in assay [2] (setting [6]) and in assay [3] (setting [5]) was 10 to 100 nM in each case.

As to `CC(C)CN(C[C@@H](O)[C@H](Cc1ccc(OCCCNc2ccc(C#N)cn2)cc1)NC(=O)O[C@H]1CO[C@H]2OCC[C@H]21)S(=O)(=O)c1ccc2c(c1)OCO2` [Compound 270, (3R,3aS,6aR)-hexahydrofuro[2,3-b]furan-3-yl (1S,2R)-3-[(1,3-benzodioxol-5-ylsulfonyl)(isobutyl)amino]-1-(4-{3[(5-cyano-2-pyridinyl)amino]propoxy}benzyl)-2-hydroxypropylcarbamate], the IC50 in assay [1] (setting [4]), in assay [2] (setting [6]) and in assay [3] (setting [5]) was 1 to 10 nM in each case.

`CC(C)CN(C[C@@H](O)[C@H](Cc1ccc(OCc2cc(F)cc(F)c2)cc1)NC(=O)O[C@H]1CO[C@H]2OCC[C@H]21)S(=O)(=O)c1ccc2c(c1)OCO2` [Compound 380, (3R,3aS,6aR)-hexahydrofuro[2,3-b]furan-3-yl (1S,2R)-3-[(1,3-benzodioxol-5-ylsulfonyl)(isobutyl)amino]-1-{4-[(3,5-difluorobenzyl)oxy]benzyl}-2-hydroxypropylcarbamate]: the IC50 in assay [1] (setting [4]) fell in the range of 1 to 10 nM; in assay [2] (setting [6]), 10 to 100 nM; in assay [3] (setting [5]), 1 to 10 nM.

As for `CC(C)CN(C[C@@H](O)[C@H](Cc1ccc(OCCc2ccccc2)cc1)NC(=O)O[C@H]1CO[C@H]2OCC[C@H]21)S(=O)(=O)c1ccc2c(c1)OCO2` [Compound 352, (3R,3aS,6aR)hexahydrofuro[2,3-b]furan-3-yl (1S,2R)-3[(1,3-benzodioxol-5-ylsulfonyl)(isobutyl)amino]-2-hydroxy-1-[4-(phenethyloxy)benzyl]propylcarbamate], the IC50 in assay [1] (setting [4]) is less than 1 nM; in assay [2] (setting [6]), 1 to 10 nM; in assay [3] (setting [5]), less than 1 nM.

For the compound `CNC(=O)OCCCC(C)(C)CN(C[C@@H](O)[C@H](Cc1ccc(OCc2ccccc2)cc1)NC(=O)OC1CO[C@H]2OCC[C@@H]12)S(=O)(=O)c1ccc2c(c1)OCO2` (some centres unmarked) [Compound 361], the IC50 in assay [1] (setting [4]) was 10 to 100 nM; in assay [2] (setting [6]), 10 to 100 nM; in assay [3] (setting [5]), 1 to 10 nM.

For the compound `CC(C)CN(C[C@@H](O)[C@H](Cc1ccc(OCCCNC(=O)OC(C)(C)C)cc1)NC(=O)O[C@H]1CO[C@H]2OCC[C@H]21)S(=O)(=O)c1ccc2c(c1)OCO2` [Compound 221, (3R,3aS,6aR)-hexahydrofuro[2,3-b]furan-3-yl (1S,2R)-3-[(1,3-benzodioxol-5-ylsulfonyl)(isobutyl)amino]-1-(4-{3-[(tert-butoxycarbonyl)amino]propoxy}benzyl)-2-hydroxypropylcarbamate], the half-inhibitory concentration (IC50) in assay [1] (setting [4]), in assay [2] (setting [6]) and in assay [3] (setting [5]) was 1 to 10 nM in each case.

Take `CC(=O)NCCCCOc1ccc(C[C@H](NC(=O)O[C@H]2CO[C@H]3OCC[C@H]32)[C@H](O)CN(CC(C)C)S(=O)(=O)c2ccc3c(c2)OCO3)cc1` [Compound 230]: the concentration for half-maximal inhibition (IC50) in assay [1] (setting [7]) was 1 to 10 nM; in assay [2] (setting [8]), 1 to 10 nM; in assay [3] (setting [9]) it was 10 to 100 nM.

For `CC(C)CN(C[C@@H](O)[C@H](Cc1ccc(OCc2cccc(F)c2)cc1)NC(=O)O[C@H]1CO[C@H]2OCC[C@H]21)S(=O)(=O)c1ccc2c(c1)OCO2` [Compound 378, (3R,3aS,6aR)-hexahydrofuro[2,3-b]furan-3-yl (1S,2R)-3-[(1,3-benzodioxol-5-ylsulfonyl)(isobutyl)amino]-1-{4-[(3-fluorobenzyl)oxy]benzyl}-2-hydroxypropylcarbamate], the results for the IC50 in assay [1] (setting [4]), in assay [2] (setting [6]) and in assay [3] (setting [5]) were 1 to 10 nM, 10 to 100 nM and 1 to 10 nM, respectively.

On to `CC(C)CN(C[C@@H](O)[C@H](Cc1ccc(OCc2ccc(C#N)cc2)cc1)NC(=O)O[C@H]1CO[C@H]2OCC[C@H]21)S(=O)(=O)c1ccc2c(c1)OCO2` [Compound 381, (3R,3aS,6aR)-hexahydrofuro[2,3-b]furan-3-yl (1S,2R)-3-[(1,3-benzodioxol-5-ylsulfonyl)(isobutyl)amino]-1-{4-[(4-cyanobenzyl)oxy]benzyl}-2-hydroxypropylcarbamate], for which the IC50 in assay [1] (setting [4]), in assay [2] (setting [6]) and in assay [3] (setting [5]) was 1 to 10 nM in each case.

For `CC(C)CN(C[C@@H](O)[C@H](Cc1ccc(OCCO)cc1)NC(=O)O[C@H]1CO[C@H]2OCC[C@H]21)S(=O)(=O)c1ccc2c(c1)OCO2` [Compound 322, (3R,3aS,6aR)-Hexahydrofuro[2,3-b]furan-3-yl (1S,2R)-3-[(1,3-benzodioxol-5-ylsulfonyl)(isobutyl)amino]-2-hydroxy-1-[4-(2-hydroxyethoxy)benzyl]propylcarbamate], the IC50 in assay [1] (setting [4]), in assay [2] (setting [6]) and in assay [3] (setting [5]) was 1 to 10 nM each time.

As to `CC(C)CN(C[C@@H](O)[C@H](Cc1ccc(OCc2ccccn2)cc1)NC(=O)O[C@H]1CO[C@H]2OCC[C@H]21)S(=O)(=O)c1ccc2c(c1)OCO2` [Compound 53, Bis-THF Methylenedioxybenzenesulfonamide 2-picolyl Tethered Product], the IC50 in assay [1] (setting [4]), in assay [2] (setting [6]), in assay [3] (setting [5]) and in assay [3] (setting [10]) was 1 to 10 nM in each case.

As to `CC(C)CN(C[C@@H](O)[C@H](Cc1ccc(OCc2cccnc2)cc1)NC(=O)O[C@H]1CO[C@H]2OCC[C@H]21)S(=O)(=O)c1ccc2c(c1)OCO2` [Compound 52, Bis-THF Methylenedioxybenzenesulfonamide 3-picolyl Tethered Product], the half-inhibitory concentration (IC50) in assay [1] (setting [4]) was 1 to 10 nM; in assay [2] (setting [6]), 1 to 10 nM; in assay [3] (setting [5]), 10 to 100 nM; in assay [3] (setting [10]), 1 to 10 nM.

`Cc1nc(COc2ccc(C[C@H](NC(=O)O[C@H]3CO[C@H]4OCC[C@H]43)[C@H](O)CN(CC(C)C)S(=O)(=O)c3ccc(O)c(C)c3)cc2)cs1` [Compound 348, (3R,3aS,6aR)-hexahydrofuro[2,3-b]furan-3-yl (1S,2R)-2-hydroxy-3-[[(4-hydroxy-3-methylphenyl)sulfonyl](isobutyl)amino]-1-{4-[(2-methyl-1,3-thiazol-4-yl)methoxy]benzyl}propylcarbamate]: the IC50 in assay [1] (setting [4]), in assay [2] (setting [6]) and in assay [3] (setting [5]) was 1 to 10 nM in each case.

Take `N#CCOc1ccc(C[C@H](NC(=O)O[C@H]2CO[C@H]3OCC[C@H]32)[C@H](O)CN(CC2CCCC2)S(=O)(=O)c2ccc3c(c2)OCO3)cc1` [Compound 397, (3R,3aS,6aR)-hexahydrofuro[2,3-b]furan-3-yl (1S,2R)-3-[(1,3-benzodioxol-5-ylsulfonyl)(cyclopentylmethyl)amino]-1-[4-(cyanomethoxy)benzyl]-2-hydroxypropylcarbamate]: the IC50 in assay [1] (setting [4]) lay in the range of 1 to 10 nM; in assay [2] (setting [6]), 1 to 10 nM; in assay [3] (setting [5]) it was 10 to 100 nM.

With `CC(C)CN(C[C@@H](O)[C@H](Cc1ccc(OC(N)=O)cc1)NC(=O)O[C@H]1CO[C@H]2OCC[C@H]21)S(=O)(=O)c1ccc2c(c1)OCO2` [Compound 312, (3R,3aS,6aR)-Hexahydrofuro[2,3-b]furan-3-yl (1S,2R)-1-{4-[(aminocarbonyl)oxy]benzyl}-3-[(1,3-benzodioxol-5-ylsulfonyl)(isobutyl)amino]-2-hydroxypropylcarbamate], the IC50 in assay [1] (setting [4]) lay in the range of 1 to 10 nM; in assay [2] (setting [6]), 10 to 100 nM; in assay [3] (setting [5]) it was 10 to 100 nM.
